In patent US6768007B2, “Substituted 3′,4′-di-O-camphanoyl-(+)-cis-khellactone analogs, compositions thereof, and methods for using thereof” (Panacos Pharmaceuticals, Inc., priority 2001, dated 2004):

What was measured:
[1] = design: species or system rats; conditions: rat, in vivo
Protocol: Studies of the disposition of compound 11 ((3′R,4′R)-3′,4′-di-O-(S)-(−)-camphanoyl-3-hydroxymethyl-4-methyl-(+)-cis-khellactone) and 4-methyl-DCK ((3′R,4′R)-3′,4′-di-O-(S)-(−)-camphanoyl-4-methyl-(+)-cis-khellactone) were conducted in rats. 4-Methyl-DCK can be prepared, for example, as described in U.S. Pat. No. 5,847,165. The rats ordered from Charles River with jugular catheters in place were allowed to acclimate for one to two days prior to use. The venous catheter was kept patent by flushing daily with heparin solution. […]
Reversed phase HPLC was conducted with an ODS, 5 μM particle size, 150×10 mm Axxiom column (Thompson Instruments, Chantilly, Va.) using 55% acetonitrile and water as the mobile phase with 25 mM acetic acid buffer at 1.5 mL/min. Detection was carried out at 320 nm (λmax) for UV detection and at an excitation wavelength of 320 nm. The equipment for HPLC was an HP 1100 system with UV and quantitative analysis was performed using the HP Chemstation. […]
Weighed amounts (approximately 7-8 mg) of 4-methyl-DCK were suspended in 1 mL of 10% Tween 80/water, then administered to two rats (250-300 g) by oral gavage using a feeding needle to provide an oral dose of 25 mg/kg. Blood samples (0.3 mL) were collected at 0, 0.25, 0.50, 0.75, 1.0, 1.5, 2, 4, 8, and 23 hours following the oral dosing. Approximately 0.01 mL of heparin was added to each sample. The samples were then centrifuged to collect 0.10 mL of plasma. The plasma samples were frozen at −20° C. prior to analysis. The samples were thawed and analyzed by reversed phase HPLC within two weeks of collection.
Reversed phase HPLC was conducted with an ODS, 5 μM particle size, 150×10 mm Axxiom column (Thompson Instruments, Chantilly, Va.) using 60% acetonitrile/0.1% TFA in water as the mobile phase. Detection was carried out at 320 nm (λmax) for UV detection. The equipment for HPLC was an HP 1050 quaternary HPLC pump, an HP 1050 UV detector at 320 nm and range 0.2, an HP 3390 integrator, and a BioRad Model AS-100 autosampler.
Standard curves were prepared by addition of appropriate diluted stock solutions of 4-methyl-DCK to 0.10 mL plasma (pooled human plasma) to provide concentration of zero, and 0.05 to 20 μg/mL in a 13×100 mm culture tube. Internal standard solution (0.025 mL of 0.01 mg/mL DCK) was then added to each tube. The spiked samples were briefly vortexes, then allowed to equilibrate for at least 10 minutes prior to further workup. […]
The HPLC assay was partially validated to have a range of 0.125 to 20 μg/mL in plasma, with a detection limit of 50 ng/mL. Recovery from plasma was determined by spiking 4-methyl-DCK into plasma the same way as was done in the preparation of the standard curve, and preparing samples as described above, but adding DCK as an external standard just prior to injection. […]

[2] = tested on: HIV-1 (IIIB isolate); assay: Anti-HIV activity in H9 lymphocytes (p24 antigen ELISA); format: cell-based; conditions: H-9 lymphocytes; for Anti-HIV Activity EC50: HIV-1 IIIB, p24 ELISA, day 5, average of at least two experiments; for Therapeutic Index (TI = IC50/EC50): ratio of IC50 to EC50
Protocol: (§1) The biological evaluation of HIV-1 inhibition was carried out according to established protocols, (Kashiwada, Y., et al., J. Med. Chem. 39:1016-1017 (1996); Hashimoto, F., et al., Bioorg. & Med. Chem. 5:2133-2143 (1997)). The T cell line, H9, was maintained in continuous culture log-phase growth in complete medium (RPMI 1640 with 10% fetal calf serum supplemented with L-glutamine at 5% CO2 and 37° C.). Test samples were first dissolved in dimethyl sulfoxide at a concentration of 10 mg/ml to generate master stocks with dilutions made into tissue culture media to generate working stocks. The following drug concentrations were used routinely for screening: 50, 5, and 0.5 μg/mL. For agents found to be active, additional dilutions were prepared for subsequent testing so that an accurate EC50 value (defined below) could be determined. As the test samples were being prepared, an aliquot of the H9 cell line was infected with HIV-1 (IIIB isolate) while a second aliquot was mock-infected with complete medium. […] An amount of virus equal to approximately 6.25×10^4 TCID50 was added to the first aliquot of 3.5×10^6H9 cells. The second aliquot received tissue culture medium only, and these mock-infected cells were used for toxicity determinations (IC50 defined below). After a 4 h incubation at 37° C. and 5% CO2, both cell populations were washed three times with fresh medium and then added to the appropriate wells of a 96-well plate containing various concentrations of the test drug or tissue culture medium (positive infected control/negative drug control). In addition, AZT was assayed during each experiment as a positive drug control. The plates were incubated at 37° C. and 5% CO2 for 5 days. Cell-free culture supernatants were collected on Day 5 for use in a p24 antigen-capture ELISA assay to determine virus replication. p24 is the core protein of HIV and therefore is an indirect measure of the amount of virus present in the culture supernatants. Toxicity was determined using a viable dye method (XTT) on mock-infected H9 cells that were treated with test sample, AZT or no drug. If a test sample suppressed viral replication and was toxic to less than 50% of the cells, its effects were reported in the following terms: IC50, the concentration of test sample which was toxic to 50% of the mock-infected H9 cells; EC50, the concentration of the test sample which was able to suppress HIV replication by 50%; and Therapeutic Index (TI), the ratio of IC50 to EC50.
(§2) Compounds of the present invention were assayed for anti-HIV activity according to the following assay procedures. The T cell line, H9, and the promonocytic cell line, U937, were maintained separately in continuous culture with complete medium (RPMI 1640 with 10% fetal calf serum) at 5% CO2 and 37° C. The cell lines were used in experiments only when in the logarithmic phase of growth, whereas uninfected peripheral blood mononuclear cells (PBMCs) were first stimulated with PHA (1 μg/mL) for three days. All cell targets were incubated with HIV-1 (IIIB isolate, 1×10^6 TCID50/mL) for one hour at 37° C. and 5% CO2. The cell lines and PBMCs were washed thoroughly to remove unadsorbed virions and resuspended at 4×10^5 cells/mL in complete medium or complete medium with 10% v/v interleukin 2 (IL-2), respectively. […] aliquots were placed into wells of 96-well tissue culture plates containing an equal volume of test compounds (diluted in the appropriate culture medium). The toxicity of each compound was assessed by determining the viability of compound-exposed uninfected cells after five days at 37° C. and 5% CO2. A p24 antigen ELISA assay was used to determine the level of virus released in the medium of the HIV-infected cultures. The p24 antigen assay used a HIV-1 anti-p24 specific monoclonal antibody as the capture antibody coated onto 96-well plates. […]

[3] = tested on: mock-infected H9 cells; assay: Cytotoxicity in mock-infected (uninfected) H9 cells; format: cell-based
Protocol: as §1, §2

[4] = tested on: HIV-1 replication in H9 lymphocyte cells; conditions: background art, cited from earlier work; for EC50: read-out: EC50 against HIV-1 replication

Row | SMILES | Anti-HIV Activity EC50 [2] [µg/mL] | Therapeutic Index (TI = IC50/EC50) [2] | Cytotoxicity IC50 [3] [µg/mL] | EC50 [4] [nM] | therapeutic index (TI) [4] | further results
1 | Cc1cc(=O)oc2c3c(ccc12)OC(C)(C)[C@H](OC(=O)[C@@]12CCC(C)(C(=O)O1)C2(C)C)[C@@H]3OC(=O)[C@@]12CCC(C)(C(=O)O1)C2(C)C (relative stereo) [Compound 4-methyl-DCK, (3′R,4′R)-3′,4′-di-O-(S)-(−)-camphanoyl-4-methyl-(+)-cis-khellactone, reference compound] |  |  |  |  |  | concentration in plasma after oral administration ([1]; po, 25 mg/kg): less than 50 ng/mL
2 | Cc1c(CO)c(=O)oc2c3c(ccc12)OC(C)(C)[C@H](OC(=O)[C@@]12CCC(C)(C(=O)O1)C2(C)C)[C@@H]3OC(=O)[C@@]12CCC(C)(C(=O)O1)C2(C)C (relative stereo) [Compound 11, (3′R,4′R)-3′,4′-Di-O-(S)-(−)-camphanoyl-3-hydroxymethyl-4-methyl-(+)-cis-khellactone] | 0.0161 | 1,320 | 21.2 |  |  | oral bioavailability (Foral) [1]: 15%; clearance ([1]; iv): 83 mL/min/kg; time at which Cmax occurs ([1]; po): 120 to 240 min
3 | CC1(C)Oc2ccc3ccc(=O)oc3c2[C@@H](OC(=O)[C@@]23CCC(C)(C(=O)O2)C3(C)C)[C@H]1OC(=O)[C@@]12CCC(C)(C(=O)O1)C2(C)C (relative stereo) [DCK, 3′,4′-di-O-(S)-(−)-camphanoyl-(3′R,4′R)-(+)-cis-khellactone] |  |  |  | 0.256 | 136,719 | 
4 | Cc1cn([C@H]2C[C@H](N=[N+]=[N-])[C@@H](CO)O2)c(=O)[nH]c1=O [AZT, reference compound] | 0.045 | 41,667 | 1875 |  |  | 
5 | CC(=O)O[C@@H]1[C@H](OC(=O)CC(C)C)c2c(ccc3ccc(=O)oc23)OC1(C)C [suksdorfin, (3′R,4′R)-3′-acetoxy-4′-isovaleryloxy-(+)-cis-khellactone] |  |  |  | 1300 | 140 | 
